From ChEMBL document CHEMBL1909515, “Discovery of a new type inhibitor of human glyoxalase I by myricetin-based 4-point pharmacophore” (Bioorg Med Chem Lett, 2011) come the findings set out here.

As a reminder, the IC50 is the concentration needed to halve the response being measured.

Experiment [1] concerns the target T1, Lactoylglutathione lyase (Homo sapiens, UniProt Q04760). As to the kind of experiment: Inhibition of human recombinant His-tagged glyoxalase 1 expressed in Escherichia coli BL21 assessed as formation of S-D-lactoylglutathione at 100 uM after 5 mins by spectrophotometric method.
Target sequence in this assay (Q04760 2-184 limits assumed): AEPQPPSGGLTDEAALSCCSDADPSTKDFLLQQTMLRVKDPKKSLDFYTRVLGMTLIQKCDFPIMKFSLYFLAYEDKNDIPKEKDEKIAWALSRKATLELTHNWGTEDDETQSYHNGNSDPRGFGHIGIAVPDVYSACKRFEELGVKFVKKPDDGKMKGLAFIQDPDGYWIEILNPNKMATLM
Experiment [2] concerns the target T1, Lactoylglutathione lyase. Kind of experiment: Inhibition of recombinant human His-tagged glyoxalase 1 expressed in Escherichia coli BL21 assessed as formation of S-D-lactoylglutathione after 5 mins by spectrophotometric method.
Target sequence in this assay (Q04760 whole entry): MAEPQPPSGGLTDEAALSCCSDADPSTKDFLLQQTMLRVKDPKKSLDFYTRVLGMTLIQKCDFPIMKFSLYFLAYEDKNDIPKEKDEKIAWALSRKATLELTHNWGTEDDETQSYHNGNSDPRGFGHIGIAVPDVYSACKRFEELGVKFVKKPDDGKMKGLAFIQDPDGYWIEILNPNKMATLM
In experiment [3] the test system is HL-60. Kind of experiment: induction of apoptosis in human HL60 cells at 300 uM. Format: functional, cell-based.
The test system of experiment [4] is HL-60. Kind of experiment: Antiproliferative activity against human HL60 cells at 300 uM. It is filed as functional, cell-based.

Active and inactive are the calls of the source. The calls are words filed in the database; no cut-off is given here.

Turning to `COc1ccc(C(=O)Nc2sc3c(c2C(=O)O)CCCC3)cc1`, the inhibition entry at Lactoylglutathione lyase [1] was “Active”. Also, the IC50 at Lactoylglutathione lyase [2] is 54.6 µM.

For `COc1ccc(C(=O)Nc2ccccc2C(=O)O)cc1`, the inhibition entry at Lactoylglutathione lyase [1] is “Active”. The IC50 at Lactoylglutathione lyase [2] is 93.2 µM.

For the compound `COc1ccc(/C=C(/CC(=O)O)c2nc3ccccc3s2)cc1`, on Lactoylglutathione lyase [1], the inhibition result is “Active”. Further, the outcome with HL-60 [3] and in the experiment on HL-60 [4] was Active. Further, the IC50 at Lactoylglutathione lyase [2] was found to be 2 µM.
